Data reported in US20260285853A1, “COMPOUNDS AND METHODS FOR MODULATING SPLICING” (REMIX THERAPEUTICS INC., priority 2023, published 2026).
Where a name gives a salt, the structure may show the parent alone.

Experiments:
Assay type in all cases: cell-based
[1] = system: SH-SY5Y (human neuroblastoma) cells; test: Cell viability, Cell Titer Glo 2.0 assay; settings: read-out: Viability SHSY5Y.3 GI50
Method in brief: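 Viability was read by CellTiter-Glo 2.0 luminescence after a 72-hour compound exposure at 37° C. under 5% CO2. Cells were in IMDM plus 10% FBS containing 0.1% DMSO, and medium-only wells gave the blank.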

MYB mRNA [2] = test: Gene panel canonical junction qPCR assay, decrease in CJ mRNA, Table 3; settings: decrease in canonical junction (CJ) mRNA, gene panel qPCR, Table 3
Method in brief: (§1)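 IC50 denotes the concentration giving 50% decrease in canonical-junction mRNA, fitted by 4-parameter logistic to percentage response derived from ΔΔCt versus housekeeping gene and DMSO control. Cells (A673 or K562) exposed 24 h to 11-point 3-fold serial dilutions from 10 uM top, DMSO ≤0.25%; junction-spanning primer/probe qPCR.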

HTT mRNA [3] = test: as above; settings: decrease in canonical junction (CJ) mRNA, gene panel qPCR, Table 3
Method in brief: as §1

MYB mRNA [4] = test: Splicing RT-qPCR assay (THP), Table 2A; settings: Table 2A (THP); for AC50: AJ mRNA increase, read-out: MYB AJ (increase in alternative junction mRNA, AC50); for IC50: CJ mRNA decrease, read-out: MYB CJ (decrease in canonical junction mRNA, IC50)
HTT mRNA [5] = test: Splicing RT-qPCR assay (THP), Table 2A; settings: Table 2A (THP); for AC50: AJ mRNA increase, read-out: HTT AJ (increase in alternative junction mRNA, AC50); for IC50: CJ mRNA decrease, read-out: HTT CJ (decrease in canonical junction mRNA, IC50)

SMILES | GI50 [1] | IC50 (MYB mRNA [2]) | IC50 (HTT mRNA [3]) | AC50 (MYB mRNA [4]) | IC50 (MYB mRNA [4]) | AC50 (HTT mRNA [5]) | IC50 (HTT mRNA [5])
COc1c(NC(=O)c2c(F)cc(N3CC[C@H](NC4CC4)C4(CC4)C3)c3cn(C)nc23)cn2cc(C)nc2c1F [Compound 367, 4-[(8S)-8-(cyclopropylamino)-5-azaspiro[2.5]octan-5-yl]-6-fluoro-N-(8-fluoro-7-methoxy-2-methyl-imidazo[1,2-a]pyridin-6-yl)-2-methyl-indazole-7-carboxamide] | 100 to 1000 nM | < 100 nM | 1000 to 10000 nM | < 100 nM | < 100 nM | 1000 to 10000 nM | 1000 to 10000 nM
COc1c(NC(=O)c2c(F)cc(N3CC[C@@H](NC4CC4)C4(CC4)C3)c3cn(C)nc23)cn2cc(C)nc2c1F [Compound 368, 4-[(8R)-8-(cyclopropylamino)-5-azaspiro[2.5]octan-5-yl]-6-fluoro-N-(8-fluoro-7-methoxy-2-methyl-imidazo[1,2-a]pyridin-6-yl)-2-methyl-indazole-7-carboxamide] | 100 to 1000 nM | < 100 nM | 1000 to 10000 nM | < 100 nM | < 100 nM | 1000 to 10000 nM | 1000 to 10000 nM
COc1c(NC(=O)c2c(F)cc(N3CCC(NC4CC4)C4(CC4)C3)c3cn(C)nc23)cn2cc(C)nc2c1F (stereo not drawn) [Compound 369, 4-[8-(cyclopropylamino)-5-azaspiro [2.5]octan-5-yl]-6-fluoro-N-(8-fluoro-7-methoxy-2-methyl-imidazo[1,2-a]-pyridin-6-yl)-2-methyl-indazole-7-carbox-amide] | 100 to 1000 nM | < 100 nM | 1000 to 10000 nM | < 100 nM | < 100 nM | 100 to 1000 nM | 1000 to 10000 nM
Cc1cn2cc(NC(=O)c3ccc(N4CCC(N[C@@H]5C[C@H]5O)CC4)c4cn(C)nc34)cc(F)c2n1 [Compound 370, N-(8-fluoro-2-methylimidazo[1,2-a]pyridin-6-yl)-4-(4-(((1R,2R)-2-hydroxycyclopropyl)amino)piperidin-1-yl)-2-methyl-2H-indazole-7-carboxamide hydrochloride] | 1000 to 10000 nM | 100 to 1000 nM | 1000 to 10000 nM | < 100 nM | 100 to 1000 nM | 1000 to 10000 nM | 1000 to 10000 nM
Cc1cn2cc(NC(=O)c3ccc(N4CCC(N[C@@H]5C[C@@H]5O)CC4)c4cn(C)nc34)cc(F)c2n1 [Compound 371, N-(8-fluoro-2-methyl-imidazo-[1,2-a]pyridin-6-yl)-4-(4-(((1R,2S)-2-hydroxy-cyclopropyl)-amino)piperidin-1-yl)-2-methyl-2H-indazole-7-carboxamide hydrochloride] | 1000 to 10000 nM | 100 to 1000 nM | 1000 to 10000 nM | < 100 nM | 100 to 1000 nM | 1000 to 10000 nM | 1000 to 10000 nM
CCNC1(C)CCN(c2cc(F)c(C(=O)Nc3cn4cc(C)nc(C)c4n3)c3nn(C)cc23)CC1 [Compound 375, N-(6,8-dimethylimidazo[1,2-a]pyrazin-2-yl)-4-[4-(ethylamino)-4-methyl-1-piperidyl]-6-fluoro-2-methyl-indazole-7-carboxamide] | 100 to 1000 nM | < 100 nM | 1000 to 10000 nM | < 100 nM | < 100 nM | 1000 to 10000 nM | 1000 to 10000 nM
C#CCCC1(CCN2CCN(c3ccc(C(=O)Nc4cc(F)c5nc(C)cn5c4)c4nn(C)cc34)CC2)N=N1 [Compound 376, 4-(4-(2-(3-(but-3-yn-1-yl)-3H-diazirin-3-yl)ethyl)piperazin-1-yl)-N-(8-fluoro-2-methyl-imidazo-[1,2-a]pyridin-6-yl)-2-methyl-2H-indazole-7-carboxamide bis(2,2,2-trifluoroacetate)] | 1000 to 10000 nM | 100 to 1000 nM | 1000 to 10000 nM | 100 to 1000 nM | 100 to 1000 nM | > 10000 nM | 1000 to 10000 nM
Cc1cn2cc(NC(=O)c3c(F)cc(N4CCC(NC5CC5)CC4)c4cn(C)nc34)c(Oc3ccccc3)c(F)c2n1 [Compound 377, 4-[4-(cyclopropylamino)-1-piperidyl]-6-fluoro-N-(8-fluoro-2-methyl-7-phenoxyimidazo [1,2-a]pyridin-6-yl)-2-methyl-indazole-7-carboxamide] | < 100 nM | < 100 nM | < 100 nM | < 100 nM | < 100 nM | < 100 nM | < 100 nM
Cc1cn2cc(NC(=O)c3ccc(N4CCC(NC5(CF)CC5)CC4)c4cn(C)nc34)cc(F)c2n1 [Compound 378, 4-[4-[[1-(fluoromethyl)cyclopropyl]amino]-1-piperidyl]-N-(8-fluoro-2-methyl-imidazo[1,2-a]pyridin-6-yl)-2-methyl-indazole-7-carboxamide] | 100 to 1000 nM | < 100 nM | 1000 to 10000 nM | < 100 nM | < 100 nM | 1000 to 10000 nM | 1000 to 10000 nM
CCNC1CCN(c2cc(F)c(C(=O)Nc3cn4cc(CO)nc(C)c4n3)c3nn(C)cc23)CC1 [Compound 379, 4-[4-(ethylamino)-1-piperidyl]-6-fluoro-N-[6-(hydroxymethyl)-8-methyl-imidazo[1,2-a]pyrazin-2-yl]-2-methyl-indazole-7-carboxamide] | > 10000 nM | 1000 to 10000 nM | > 10000 nM | 1000 to 10000 nM | 1000 to 10000 nM | > 10000 nM | > 10000 nM
CCNC1CCN(c2cc(F)c(C(=O)Nc3nc4c(C)nc(C)cc4o3)c3nn(C)cc23)CC1 [Compound 380, N-(4,6-dimethyl-oxazolo-[4,5-c]-pyridin-2-y1)-4-[4-(ethylamino)-1-piperidy1]-6-fluoro-2-methyl-indazole-7-carboxamide] | > 10000 nM | 1000 to 10000 nM | > 10000 nM | 1000 to 10000 nM | 1000 to 10000 nM | > 10000 nM | > 10000 nM
CCNC1CCN(c2cc(F)c(C(=O)Nc3cn4ccncc4n3)c3nn(C)cc23)CC1 [Compound 381, 4-[4-(ethylamino)-1-piper-idyl]-6-fluoro-N-imidazo [1,2-a]-pyrazin-2-yl-2-methyl-indazole-7-carboxamide] | 1000 to 10000 nM | 1000 to 10000 nM | 1000 to 10000 nM | 1000 to 10000 nM | 1000 to 10000 nM | 1000 to 10000 nM | 1000 to 10000 nM
Cc1cn2cc(NC(=O)c3c(F)cc(N4CCC(NC5CC5)CC4)c4cn(C)nc34)c(OC3CC3)c(F)c2n1 [Compound 382, N-[7-(cyclopropoxy)-8-fluoro-2-methyl-imidazo [1,2-a]-pyridin-6-yl]-4-[4-(cyclopropylamino)-1-piperidyl]-6-fluoro-2-methyl-indazole-7-carboxamide] | < 100 nM | < 100 nM | < 100 nM | < 100 nM | < 100 nM | < 100 nM | < 100 nM
CCNC1CCN(c2cc(F)c(C(=O)Nc3cn4cc(CF)nc(C)c4n3)c3nn(C)cc23)CC1 [Compound 383, 4-(4-(ethylamino)piperidin-1-yl)-6-fluoro-N-(6-(fluoromethyl)-8-methylimidazo[1,2-a]-pyrazin-2-yl)-2-methyl-2H-indazole-7-carboxamide 2,2,2-trifluoroacetate] | 1000 to 10000 nM | < 100 nM | > 10000 nM | < 100 nM | < 100 nM | 100 to 1000 nM | > 10000 nM
CCNC1CCN(c2cc(F)c(C(=O)Nc3cn4ccnc(C)c4n3)c3nn(C)cc23)CC1 [Compound 384, 4-[4-(ethylamino)-1-piperidyl]-6-fluoro-2-methyl-N-(8-methyl-imidazo[1,2-a]-pyrazin-2-yl)-indazole-7-carbox-amide] | > 10000 nM | > 10000 nM | > 10000 nM | > 10000 nM | > 10000 nM | > 10000 nM | > 10000 nM
CCNC1CCN(c2ccc(C(=O)Nc3cc(OC)c4nc(C)sc4c3)c3nn(C)cc23)CC1 [Compound 385, 4-[4-(ethylamino)-1-piperidyl]-N-(4-methoxy-2-methyl-1,3-benzothiazol-6-yl)-2-methyl-indazole-7-carboxamide 2,2,2-trifluoroacetate] | 1000 to 10000 nM | > 10000 nM | > 10000 nM | 100 to 1000 nM | > 10000 nM | 1000 to 10000 nM | > 10000 nM
Cc1cn2cc(NC(=O)c3c(F)cc(N4CCC(NC5CC5)CC4)c4cn(C)nc34)cc(Oc3ccnnc3)c2n1 [Compound 386, 4-[4-(cyclopropylamino)-1-piperidyl]-6-fluoro-2-methyl-N-(2-methyl-8-pyridazin-4-yloxy-imidazo-[1,2-a]-pyridin-6-yl)indazole-7-carboxamide] | > 10000 nM | 100 to 1000 nM | > 10000 nM | 100 to 1000 nM | 100 to 1000 nM | 1000 to 10000 nM | > 10000 nM
CCNC1CCN(c2cc(F)c(C(=O)Nc3cc4cn(C)nc4cc3OC)c3nn(C)cc23)CC1 [Compound 387, 4-[4-(ethyl-amino)-1-piperidyl]-6-fluoro-N-(6-methoxy-2-methyl-indazol-5-yl)-2-methyl-indazole-7-carboxamide] | 1000 to 10000 nM | < 100 nM | 100 to 1000 nM | < 100 nM | < 100 nM | 100 to 1000 nM | 100 to 1000 nM
